Results reported in patent US7186830B2, “Tricyclic 2-pyrimidone compounds useful as HIV reverse transcriptase inhibitors” (Bristol-Myers Squibb Company, priority 2002, dated 2007).

Row | Structure (SMILES) | melting point
1 | Cc1nc2c(c(=O)[nH]1)Nc1ccc(C#N)cc1C2(COC(C)C)C(F)(F)F (centres unmarked) [Example 7, 8-Cyano-10-(isopropoxymethyl)-2-methyl-10-(trifluoromethyl)-5,10-dihydropyrimido[5,4-b]quinolin-4(3H)-one] | 277.3 to 278.1 °C (dec.)
2 | N#Cc1ccc2c(c1)C(CCC1CC1)(C(F)(F)F)c1nc[nH]c(=O)c1N2 (centres unmarked) [Example 9, 8-Cyano-10-(2-cyclopropylethyl)-10-(trifluoromethyl)-5,10-dihydropyrimido[5,4-b]quinolin-4(3H)-one] | > 280 °C
